Laboratory results from article PMC6100043, “Development of Thiophene Compounds as Potent Chemotherapies for the Treatment of Cutaneous Leishmaniasis Caused by Leishmania major” (Molecules : A Journal of Synthetic Chemistry and Natural …, 2018).
Where two headings read alike, the source gives them in different places.

Tests used:
[1] = test system: L. major-luc promastigotes; test: Luciferase assay, viability of L. major-luc promastigotes; type: cell-based, Leishmania major; details: 72 h at 28 °C, 2 × 10^6 promastigotes per mL, luciferase activity
[2] = parameters: method as in PMID 25365529, PMID 26230675; details: cited from earlier work
[3] = Mammalian cell cytotoxicity (alamarBlue for 5A; PI/Hoechst HCIA for 5D, 5E) in IPΦ; details: BALB/c, mouse, intraperitoneal mouse macrophages (IPΦ)
[4] = test system: intraperitoneal mouse macrophages (IPΦ); test: as above; details: for S.I. IPΦ (CC50 mammalian cells)/(EC50 in L. major-luc promastigotes): IPΦ vs L. major-luc promastigotes
[5] = Mammalian cell cytotoxicity (alamarBlue for 5A; PI/Hoechst HCIA for 5D, 5E) in LLC-MK2; details: rhesus monkey, LLC-MK2 kidney epithelial cells
[6] = test system: monkey kidney cells (LLC-MK2); test: as above; details: for S.I. LLC-MK2 (CC50 mammalian cells)/(EC50 in L. major-luc promastigotes): LLC-MK2 vs L. major-luc promastigotes
[7] = test system: L. major intracellular amastigotes; test: High-Content Imaging Assay, proliferation of intracellular amastigotes in infected IPΦ; type: cell-based, Leishmania major; details: for number of infected cells compared to control treated with 1% DMSO: 2.5 µM, infected IPΦ; for number of infected cells compared to control treated with 1% DMSO / inhibition at 0.625 µM: 48 h; for inhibition at 0.625 µM: Leishmania major, read-out: inhibition of the proliferation of intracellular amastigotes
L. major promastigotes = test: Measurement of reactive oxygen species levels (H2DCFDA); type: cell-based, Leishmania major; details: 5D at EC50, 24 h incubation + 7 h reading (31 h), H2DCFDA 10 µM
[8] = read-out: EC50 Leishmania major-luc promastigotes

Row | Compound | EC50 ([1]; Leishmania major, 72 h) | CC50 at 48 h [3] | S.I. IPΦ (CC50 mammalian cells)/(EC50 in L. major-luc promastigotes) [4] | CC50 at 72 h [5] | other results
1 | CCOC(=O)c1c(NC(=O)c2ccccc2C(F)(F)F)sc2c1CC(C)(C)NC2(C)C [Compound 5B, Ethyl-5,5,7,7-tetramethyl-2-(2-(trifluoromethyl)benzamido)-4,5,6,7-tetrahydrothieno[2,3-c]pyridine-3-carboxylate] | 5.98 ± 1.72 µM |  |  |  | 
2 | CC1(C)Cc2c(sc(NC(=O)c3ccccc3C(F)(F)F)c2C(=O)O)C(C)(C)N1 [Compound 5G, 5,5,7,7-tetramethyl-2-(2-(trifluoromethyl)benzamido)-4,5,6,7-tetrahydrothieno[2,3-c]pyridine-3-carboxylic acid] | > 12.5 µM |  |  |  | 
3 | Ethyl-5,5,7,7-tetramethyl-2-(2-(trifluoromethyl)benzamido)-4,5,6,7-tetrahydrothieno[2,3-c]pyridine-3-carboxylate [Compound 5C] |  |  |  |  | EC50 [1, 8]: 4.73 ± 0.69 µM
4 | CCCCCCCCCCCCCCCCOP(=O)([O-])OCC[N+](C)(C)C [Miltefosine, miltefosine] |  |  |  |  | half-life [2]: 150 h
5 | CC1(C)Cc2c(sc(NC(=O)c3cc(Cl)ccc3C(F)(F)F)c2C(=O)O)C(C)(C)N1 [Compound 5F, 2-(5-chloro-2-(trifluoromethyl)benzamido)-5,5,7,7-tetramethyl-4,5,6,7-tetrahydrothieno[2,3-c]pyridine-3-carboxylic acid] | > 12.5 µM |  |  |  | 
6 | COC(=O)c1c(NC(=O)c2ccccc2C(F)(F)F)sc2c1CC(C)(C)NC2(C)C [Compound 5I, Methyl-5,5,7,7-tetramethyl-2-(2-(trifluoromethyl)benzamido)-4,5,6,7-tetrahydrothieno[2,3-c]pyridine-3-carboxylate] | 5.5 ± 1.8 µM |  |  |  | 
7 | COC(=O)c1c(NC(=O)c2ccc(F)c(C(F)(F)F)c2)sc2c1CC(C)(C)NC2(C)C [Compound 5H, Methyl-2-(4-fluoro-3-(trifluoromethyl)benzamido)-5,5,7,7-tetramethyl-4,5,6,7-tetrahydrothieno[2,3-c]-pyridine3-carboxylate] | 3.05 ± 0.47 µM |  |  |  | 
8 | CCOC(=O)c1c(NC(=O)c2ccc(C(F)(F)F)cc2)sc2c1CC(C)(C)NC2(C)C [Compound 5A, Ethyl 5,5,7,7-tetramethyl-2-(4-(trifluoromethyl)benzamido)-4,5,6,7-tetrahydrothieno[2,3-c]pyridine-3-carboxylate] | ~0.34 µM | ~10.4 µM | 30.50 | 17.7 ± 1.12 µM | EC50 [1, 8]: ~0.341 µM; cytotoxicity for IPΦ ([4]; at 5 and 10 µM, in HCIA of infected IPΦ, 48 h): cytotoxic; S.I. LLC-MK2 (CC50 mammalian cells)/(EC50 in L. major-luc promastigotes) [6]: 52.85
9 | CCOC(=O)c1c(NC(=O)c2ccc(F)c(C(F)(F)F)c2)sc2c1CC(C)(C)NC2(C)C [Compound 5E, Ethyl-2-(4-fluoro-3-(trifluoromethyl)benzamido)-5,5,7,7-tetramethyl-4,5,6,7-tetrahydrothieno[2,3-c]-pyridine-3-carboxylate] | 0.78 ± 0.11 µM | 16.6 ± 1.52 µM | 21.27 | 80 ± 4.45 µM | number of infected cells compared to control treated with 1% DMSO [7]: reduced number of infected cells; inhibition at 0.625 µM [7]: > 50%; S.I. LLC-MK2 (CC50 mammalian cells)/(EC50 in L. major-luc promastigotes) [6]: 102.56
10 | CCOC(=O)c1c(NC(=O)c2cccc(C(F)(F)F)c2F)sc2c1CC(C)(C)NC2(C)C [Compound 5D, Ethyl-2-(2-fluoro-3-(trifluoromethyl)benzamido)-5,5,7,7-tetramethyl-4,5,6,7-tetrahydrothieno[2,3-c]-pyridine-3-carboxylate] |  | 27.9 ± 3.19 µM | 310 | > 80 µM | number of infected cells compared to control treated with 1% DMSO [7]: reduced number of infected cells; inhibition at 0.625 µM [7]: > 75%; decrease of the proliferation of the parasite (intracellular amastigotes) ([7]; infected murine macrophages, concentration not given): 80%; ROS levels, fold higher compared to vehicle control 1% DMSO (L. major promastigotes): 14.5 fold; selectivity compared with parent compound 5A ([4]; fold higher than 5A): 10 fold; toxicity against LLC-MK2 ([6]; at concentrations up to 80 µM, 72 h): did not display perceptible toxicity
